Data on two compounds can be found in ChEMBL document CHEMBL5291721, “A preclinical secondary pharmacology resource illuminates target-adverse drug reaction associations of marketed drugs” (Nat Commun, 2023).

Bounds are passed on as bounds.

The target of one assay is T1, Progesterone receptor (Homo sapiens, UniProt P06401).
T1 sequence (P06401 whole entry): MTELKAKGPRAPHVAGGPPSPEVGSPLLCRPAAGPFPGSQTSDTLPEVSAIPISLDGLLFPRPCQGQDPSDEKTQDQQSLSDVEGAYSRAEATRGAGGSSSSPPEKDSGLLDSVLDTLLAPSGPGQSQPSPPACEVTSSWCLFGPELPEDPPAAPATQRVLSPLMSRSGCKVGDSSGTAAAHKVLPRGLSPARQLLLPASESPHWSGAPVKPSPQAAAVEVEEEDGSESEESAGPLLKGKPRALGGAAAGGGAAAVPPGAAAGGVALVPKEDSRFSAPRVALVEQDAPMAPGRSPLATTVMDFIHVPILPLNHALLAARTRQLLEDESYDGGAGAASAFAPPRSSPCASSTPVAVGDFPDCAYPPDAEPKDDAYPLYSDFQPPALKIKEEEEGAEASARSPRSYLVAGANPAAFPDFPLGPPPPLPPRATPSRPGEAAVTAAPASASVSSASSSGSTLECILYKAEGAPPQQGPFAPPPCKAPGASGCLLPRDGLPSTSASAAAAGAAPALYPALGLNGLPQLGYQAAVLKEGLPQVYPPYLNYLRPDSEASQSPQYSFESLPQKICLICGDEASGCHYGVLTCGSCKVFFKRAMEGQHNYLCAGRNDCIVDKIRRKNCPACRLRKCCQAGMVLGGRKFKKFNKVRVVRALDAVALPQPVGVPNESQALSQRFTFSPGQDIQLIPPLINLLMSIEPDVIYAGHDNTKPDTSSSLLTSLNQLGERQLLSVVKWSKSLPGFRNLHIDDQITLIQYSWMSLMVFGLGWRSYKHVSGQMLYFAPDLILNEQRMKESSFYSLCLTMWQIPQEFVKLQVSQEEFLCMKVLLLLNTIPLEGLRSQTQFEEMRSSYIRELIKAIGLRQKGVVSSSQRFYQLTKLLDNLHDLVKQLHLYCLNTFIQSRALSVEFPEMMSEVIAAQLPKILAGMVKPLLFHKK

Assay [1] has as its target T2, D(1A) dopamine receptor (Homo sapiens, UniProt P21728).
The target in the next assay is Cannabinoid receptor 1 (Homo sapiens, UniProt P21554). The class given is functional, cell-based.
Chain of Cannabinoid receptor 1 (P21554 whole entry): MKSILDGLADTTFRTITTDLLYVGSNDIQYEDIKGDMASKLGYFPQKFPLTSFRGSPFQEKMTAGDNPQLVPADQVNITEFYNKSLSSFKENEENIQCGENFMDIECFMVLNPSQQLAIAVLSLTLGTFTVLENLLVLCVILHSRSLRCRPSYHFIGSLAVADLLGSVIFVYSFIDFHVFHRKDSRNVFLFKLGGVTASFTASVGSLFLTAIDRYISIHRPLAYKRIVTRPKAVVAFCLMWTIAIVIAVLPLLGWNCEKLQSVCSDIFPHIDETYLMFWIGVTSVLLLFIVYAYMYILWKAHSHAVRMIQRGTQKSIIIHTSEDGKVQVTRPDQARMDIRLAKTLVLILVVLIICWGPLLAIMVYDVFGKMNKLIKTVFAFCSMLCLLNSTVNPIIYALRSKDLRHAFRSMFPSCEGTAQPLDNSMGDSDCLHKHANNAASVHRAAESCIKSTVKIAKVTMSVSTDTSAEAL
For assay [2], the target named is Sodium-dependent noradrenaline transporter (Homo sapiens, UniProt P23975).
Chain of Sodium-dependent noradrenaline transporter (P23975 whole entry): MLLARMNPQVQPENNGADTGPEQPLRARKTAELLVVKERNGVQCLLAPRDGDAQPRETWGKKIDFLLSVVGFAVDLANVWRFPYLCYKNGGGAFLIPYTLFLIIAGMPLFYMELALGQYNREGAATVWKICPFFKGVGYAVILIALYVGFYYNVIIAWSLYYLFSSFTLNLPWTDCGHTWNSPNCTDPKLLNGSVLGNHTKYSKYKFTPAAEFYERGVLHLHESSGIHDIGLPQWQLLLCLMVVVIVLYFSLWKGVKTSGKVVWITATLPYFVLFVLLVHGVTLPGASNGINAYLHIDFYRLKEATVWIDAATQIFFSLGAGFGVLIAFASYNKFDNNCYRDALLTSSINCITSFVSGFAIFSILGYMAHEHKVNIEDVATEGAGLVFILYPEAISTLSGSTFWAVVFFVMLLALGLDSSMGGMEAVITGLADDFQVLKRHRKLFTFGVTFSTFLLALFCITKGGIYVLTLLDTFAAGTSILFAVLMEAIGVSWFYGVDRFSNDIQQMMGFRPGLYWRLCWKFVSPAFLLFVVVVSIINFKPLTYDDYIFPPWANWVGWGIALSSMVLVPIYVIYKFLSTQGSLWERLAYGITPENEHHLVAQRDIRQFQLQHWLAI
The next assay addresses Vasopressin V1a receptor (Homo sapiens, UniProt P37288).
Assay [3] addresses Gamma-aminobutyric acid receptor subunit alpha-1 (Rattus norvegicus, UniProt P62813). The class given is functional.
A further assay concerns the target Mu-type opioid receptor (Homo sapiens, UniProt P35372).
The target in assay [4] is Beta-1 adrenergic receptor (Homo sapiens, UniProt P08588). It counts as functional.
Chain of Beta-1 adrenergic receptor (P08588 whole entry): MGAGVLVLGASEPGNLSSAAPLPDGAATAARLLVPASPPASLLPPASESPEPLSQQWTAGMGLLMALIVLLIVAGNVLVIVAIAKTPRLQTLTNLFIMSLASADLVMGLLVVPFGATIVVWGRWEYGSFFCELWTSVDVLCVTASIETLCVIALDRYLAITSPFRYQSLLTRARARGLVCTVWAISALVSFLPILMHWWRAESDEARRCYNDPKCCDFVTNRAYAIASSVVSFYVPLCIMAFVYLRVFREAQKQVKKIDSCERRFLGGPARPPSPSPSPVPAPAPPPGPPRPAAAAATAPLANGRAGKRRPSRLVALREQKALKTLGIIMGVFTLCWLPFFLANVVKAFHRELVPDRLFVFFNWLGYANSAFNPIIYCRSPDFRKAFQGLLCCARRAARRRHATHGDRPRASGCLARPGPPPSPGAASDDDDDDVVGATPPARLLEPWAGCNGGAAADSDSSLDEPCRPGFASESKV
Assay [5] concerns the target T3, Gastrin/cholecystokinin type B receptor (Homo sapiens, UniProt P32239).
T3 sequence (P32239 whole entry): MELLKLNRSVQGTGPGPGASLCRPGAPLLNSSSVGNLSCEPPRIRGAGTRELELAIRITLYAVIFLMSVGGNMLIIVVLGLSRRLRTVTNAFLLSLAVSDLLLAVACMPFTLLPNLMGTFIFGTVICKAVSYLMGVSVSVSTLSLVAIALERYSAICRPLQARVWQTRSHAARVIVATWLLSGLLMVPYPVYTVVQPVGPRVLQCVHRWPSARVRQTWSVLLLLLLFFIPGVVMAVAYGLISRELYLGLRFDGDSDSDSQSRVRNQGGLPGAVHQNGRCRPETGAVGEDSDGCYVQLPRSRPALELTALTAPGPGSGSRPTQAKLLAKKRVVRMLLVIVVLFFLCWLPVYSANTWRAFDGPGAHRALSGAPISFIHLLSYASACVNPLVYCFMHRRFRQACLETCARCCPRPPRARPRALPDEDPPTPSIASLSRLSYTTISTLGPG

The target in a further assay is Prothrombin (Homo sapiens, UniProt P00734). The class given is functional.
Assay [6] deals with T2, D(1A) dopamine receptor. The class given is functional, cell-based.
Assay [7] deals with Vascular endothelial growth factor receptor 2 (Homo sapiens, UniProt P35968). It counts as functional.
Chain of Vascular endothelial growth factor receptor 2 (P35968 whole entry): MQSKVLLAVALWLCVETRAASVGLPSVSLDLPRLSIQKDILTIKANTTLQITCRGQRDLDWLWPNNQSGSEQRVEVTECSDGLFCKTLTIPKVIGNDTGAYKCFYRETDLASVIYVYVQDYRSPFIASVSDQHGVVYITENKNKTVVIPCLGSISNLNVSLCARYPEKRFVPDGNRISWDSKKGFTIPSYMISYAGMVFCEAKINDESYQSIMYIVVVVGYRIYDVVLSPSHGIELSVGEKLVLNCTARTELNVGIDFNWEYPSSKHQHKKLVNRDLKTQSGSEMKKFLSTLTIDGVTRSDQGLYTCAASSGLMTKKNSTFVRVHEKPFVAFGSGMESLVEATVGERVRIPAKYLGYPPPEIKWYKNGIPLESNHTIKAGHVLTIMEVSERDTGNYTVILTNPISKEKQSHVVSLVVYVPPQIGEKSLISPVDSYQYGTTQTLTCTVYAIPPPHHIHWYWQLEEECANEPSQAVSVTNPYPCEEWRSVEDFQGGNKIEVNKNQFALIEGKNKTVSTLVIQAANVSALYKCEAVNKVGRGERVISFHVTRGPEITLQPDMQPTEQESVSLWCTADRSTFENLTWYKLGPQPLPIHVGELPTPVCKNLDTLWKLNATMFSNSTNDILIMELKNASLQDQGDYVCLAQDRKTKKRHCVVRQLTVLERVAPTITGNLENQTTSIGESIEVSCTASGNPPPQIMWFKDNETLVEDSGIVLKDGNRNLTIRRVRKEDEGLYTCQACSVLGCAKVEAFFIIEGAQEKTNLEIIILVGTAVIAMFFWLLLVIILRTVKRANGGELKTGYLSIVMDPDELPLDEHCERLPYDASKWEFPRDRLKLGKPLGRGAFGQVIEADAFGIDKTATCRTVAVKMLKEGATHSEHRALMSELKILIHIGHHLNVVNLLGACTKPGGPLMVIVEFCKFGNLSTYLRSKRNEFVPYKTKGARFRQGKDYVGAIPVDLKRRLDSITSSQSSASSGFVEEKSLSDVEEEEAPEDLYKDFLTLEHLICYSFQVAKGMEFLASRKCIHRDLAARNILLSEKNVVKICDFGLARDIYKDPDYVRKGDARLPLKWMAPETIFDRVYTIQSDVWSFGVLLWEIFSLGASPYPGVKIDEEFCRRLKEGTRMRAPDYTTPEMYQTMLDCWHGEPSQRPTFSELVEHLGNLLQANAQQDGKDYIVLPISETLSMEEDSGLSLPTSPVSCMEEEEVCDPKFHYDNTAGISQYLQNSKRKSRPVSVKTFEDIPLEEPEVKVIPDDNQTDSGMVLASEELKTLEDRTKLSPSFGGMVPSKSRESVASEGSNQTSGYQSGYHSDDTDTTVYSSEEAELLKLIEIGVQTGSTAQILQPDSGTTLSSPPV
Assay [8] has as its target T4, 5-hydroxytryptamine receptor 1A (Homo sapiens, UniProt P08908).
T4 sequence (P08908 whole entry): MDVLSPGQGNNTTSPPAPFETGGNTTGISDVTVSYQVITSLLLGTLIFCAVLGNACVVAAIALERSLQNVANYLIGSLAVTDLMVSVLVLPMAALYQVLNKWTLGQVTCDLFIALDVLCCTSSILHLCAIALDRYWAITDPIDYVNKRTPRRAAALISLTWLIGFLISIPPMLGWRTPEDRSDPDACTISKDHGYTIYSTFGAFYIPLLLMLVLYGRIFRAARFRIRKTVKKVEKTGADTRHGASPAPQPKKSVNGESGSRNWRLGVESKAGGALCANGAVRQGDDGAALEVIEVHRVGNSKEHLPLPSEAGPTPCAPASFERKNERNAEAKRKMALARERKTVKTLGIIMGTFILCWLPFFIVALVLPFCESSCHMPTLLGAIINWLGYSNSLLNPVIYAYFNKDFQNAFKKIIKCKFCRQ

Assay [9] deals with T5, Alpha-2A adrenergic receptor (Homo sapiens, UniProt P08913).
T5 sequence (P08913 whole entry): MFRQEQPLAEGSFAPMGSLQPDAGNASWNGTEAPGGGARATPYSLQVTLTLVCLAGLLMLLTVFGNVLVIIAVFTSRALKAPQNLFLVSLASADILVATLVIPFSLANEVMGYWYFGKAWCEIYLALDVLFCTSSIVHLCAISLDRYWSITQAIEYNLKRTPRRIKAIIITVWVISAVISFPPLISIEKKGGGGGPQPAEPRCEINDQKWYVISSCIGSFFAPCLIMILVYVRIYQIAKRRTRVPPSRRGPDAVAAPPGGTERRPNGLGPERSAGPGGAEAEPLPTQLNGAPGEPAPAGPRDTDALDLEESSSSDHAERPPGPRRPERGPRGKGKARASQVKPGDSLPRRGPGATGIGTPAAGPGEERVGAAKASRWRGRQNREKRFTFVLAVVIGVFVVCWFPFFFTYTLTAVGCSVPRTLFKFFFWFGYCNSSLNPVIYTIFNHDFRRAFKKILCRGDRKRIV
It counts as functional, cell-based.
Note: assay procedure not described here.

T2 sequence (P21728 whole entry): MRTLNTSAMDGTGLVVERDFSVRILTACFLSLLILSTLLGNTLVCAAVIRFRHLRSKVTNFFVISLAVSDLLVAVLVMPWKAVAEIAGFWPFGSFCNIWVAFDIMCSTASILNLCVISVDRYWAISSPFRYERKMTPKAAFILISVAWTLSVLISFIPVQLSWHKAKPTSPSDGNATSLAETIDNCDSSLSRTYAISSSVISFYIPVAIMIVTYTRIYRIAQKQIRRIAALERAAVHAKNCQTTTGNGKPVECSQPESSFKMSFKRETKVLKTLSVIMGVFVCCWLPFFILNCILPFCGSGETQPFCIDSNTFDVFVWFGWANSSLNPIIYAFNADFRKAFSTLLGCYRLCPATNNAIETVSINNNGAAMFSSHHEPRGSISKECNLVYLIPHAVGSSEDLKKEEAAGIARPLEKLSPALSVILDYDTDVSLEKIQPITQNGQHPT
Chain of Mu-type opioid receptor (P35372 whole entry): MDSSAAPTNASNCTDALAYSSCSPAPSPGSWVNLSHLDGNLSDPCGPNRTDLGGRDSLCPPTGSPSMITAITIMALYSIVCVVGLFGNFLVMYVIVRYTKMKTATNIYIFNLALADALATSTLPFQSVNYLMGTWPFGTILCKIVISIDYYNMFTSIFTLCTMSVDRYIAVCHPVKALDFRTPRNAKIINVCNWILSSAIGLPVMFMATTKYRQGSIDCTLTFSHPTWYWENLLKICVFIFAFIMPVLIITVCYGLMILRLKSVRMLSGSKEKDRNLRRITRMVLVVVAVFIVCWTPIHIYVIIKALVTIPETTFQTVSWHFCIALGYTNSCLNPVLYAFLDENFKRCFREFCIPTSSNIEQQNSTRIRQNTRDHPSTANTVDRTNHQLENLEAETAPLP
Chain of Gamma-aminobutyric acid receptor subunit alpha-1 (P62813 whole entry): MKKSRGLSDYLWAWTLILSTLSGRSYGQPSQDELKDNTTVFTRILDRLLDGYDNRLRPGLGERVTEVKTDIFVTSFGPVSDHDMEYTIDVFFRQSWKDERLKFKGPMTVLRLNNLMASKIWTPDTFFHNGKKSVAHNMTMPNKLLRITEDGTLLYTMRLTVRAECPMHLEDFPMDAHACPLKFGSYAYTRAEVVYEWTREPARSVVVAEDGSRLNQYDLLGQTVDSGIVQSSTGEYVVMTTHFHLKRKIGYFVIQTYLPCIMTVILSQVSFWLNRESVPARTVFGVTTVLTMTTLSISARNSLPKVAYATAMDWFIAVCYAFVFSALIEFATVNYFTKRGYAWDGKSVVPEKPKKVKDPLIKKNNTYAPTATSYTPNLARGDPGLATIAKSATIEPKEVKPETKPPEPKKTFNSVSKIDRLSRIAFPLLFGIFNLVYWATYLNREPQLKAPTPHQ
Chain of Vasopressin V1a receptor (P37288 whole entry): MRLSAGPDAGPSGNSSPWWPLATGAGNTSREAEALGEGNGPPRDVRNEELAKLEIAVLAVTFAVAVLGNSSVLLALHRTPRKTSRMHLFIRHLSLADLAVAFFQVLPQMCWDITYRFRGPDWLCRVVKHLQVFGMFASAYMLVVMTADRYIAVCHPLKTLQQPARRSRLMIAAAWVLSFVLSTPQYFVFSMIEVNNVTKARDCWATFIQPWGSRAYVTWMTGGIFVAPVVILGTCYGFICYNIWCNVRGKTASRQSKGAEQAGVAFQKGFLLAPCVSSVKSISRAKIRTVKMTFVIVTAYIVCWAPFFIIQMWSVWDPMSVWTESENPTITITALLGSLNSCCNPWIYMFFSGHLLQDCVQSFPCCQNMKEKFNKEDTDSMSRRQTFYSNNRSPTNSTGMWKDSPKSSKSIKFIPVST

Regarding `CN1CCN(C2=Nc3ccccc3Oc3ccc(Cl)cc32)CC1` [LOXAPINE], the AC50 – broadly, the midpoint of the concentration-response curve, whichever way the signal moves – was more than 30 µM on Progesterone receptor; 0.0245 µM at D(1A) dopamine receptor [1]; more than 30 µM on Cannabinoid receptor 1; 0.482 µM in [2]; more than 10 µM on Vasopressin V1a receptor; more than 10 µM in assay [3]. Also, the AC50 on Mu-type opioid receptor is 8.61 µM; in assay [4] it was more than 10 µM; in assay [5] it was more than 30 µM; on Prothrombin, more than 30 µM; on D(1A) dopamine receptor [6], more than 10 µM; in assay [7] it was more than 30 µM. Also, in assay [8], the half-maximal activity concentration (AC50) was determined as 3.95 µM.

Consider `C[C@H](Cc1cc2c(c(C(N)=O)c1)N(CCCO)CC2)NCCOc1ccccc1OCC(F)(F)F` [SILODOSIN], for which the AC50 was more than 30 µM at Progesterone receptor; 10.8 µM on D(1A) dopamine receptor [1]; more than 30 µM in [2]; 10 µM in assay [9]; 3.34 µM on Mu-type opioid receptor; more than 30 µM at Prothrombin. Also, the results for the concentration at half-maximal activity (AC50) in assay [7] and in [8] were more than 30 µM and 0.003 µM, respectively.
